The structures appear in SMILES notation.

Experiment [1] can be described thus: Use of PQQ for preventing menstrual cycle disorders (oral tablets, six months, vitamin C control). As to conditions: preliminary experimental data. Format: in vivo, human. How it is done: (§1) The criteria for menstrual cycle disorders are as follows: 1. Early menstruation: Early menstruation refers to a shortened menstrual cycle that is shorter than 21 days and occurs for more than two consecutive cycles. It is a biphasic basal body temperature of ovulatory functional uterine bleeding, a short follicular phase of only 7 or 8 days; or a luteal phase of less than 10 days, or a temperature rise of less than 0.5° C. 2. Delayed menstruation: Menstruation is missed for more than 7 days, or even 40-50 days, and symptoms appear for more than 2 menstrual cycles. […] 3. Prolonged menstruation: The symptoms of this type of menstrual disorder are mainly a normal menstrual cycle but a prolonged menstrual period, lasting more than 7 days, or even up to 2 weeks before ending. Those with inflammation usually experience lower abdominal pain, which is aggravated during menstruation. Usually, the amount of leucorrhea is heavy, yellow or yellowish-white, thick, and odorous. Those with incomplete corpus luteum atrophy are also accompanied by heavy menstruation; those with prolonged endometrial repair still experience a small amount of persistent vaginal bleeding after the normal menstrual period. 4. Irregular menstruation: Menstruation is early or late, and the cycle is shorter than 21 days or longer than 35 days. No endometriosis. […]

Experiment [2] can be described thus: Use of PQQ for ameliorating or treating menstrual cycle disorders (oral tablets, six months, vitamin C control). Format: in vivo, human. Particulars: preliminary experimental data. How it is done: as §1

In the case of `O=C(O)c1cc(C(=O)O)c2c(n1)C(=O)C(=O)c1cc(C(=O)O)[nH]c1-2` [PQQ, 4,5-dioxo-1H-pyrrolo[2,3-f]quinoline-2,7,9-tricarboxylic acid], in experiment [1], the “effect on preventing menstrual cycle disorders compared with a placebo” value was “significant effect”. Moreover, the “effect on alleviating or treating menstrual cycle disorders compared with a placebo” value in experiment [2] is “significant effect”.

The values above are taken from patent US20260144786A1, “METHOD FOR TREATING MENSTRUAL CYCLE DISORDERS” (Guangzhou HuTong Youwu Biotechnology Co., Ltd, priority 2023, published 2026).
